Data taken from US20050239656A1, “Pyridine compounds or salts thereof and herbicides containing the same” (priority 2002, published 2005).

What was measured:
barnyardgrass [1] = assay: Test Example 1: foliage treatment, upland pot test; format: in vivo, Echinochloa crus-galli L.; conditions: active ingredient 500 g/ha, observed 18th to 23rd day, 0 = non-treated, 100 = complete kill
How it was run: (§1)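 Pots of upland field soil were sown and sprayed post-emergence at soybean 0.1–0.4, wheat 1.3–2.4, rice 1.2–2.6 and barnyardgrass 1.3–2.8 leaf stages. Formulations were diluted in water at 500 L/ha with 0.1% (v/v) spreader. Growth control (0 = untreated, 100 = complete kill) was judged by eye 18–23 days later.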

crabgrass [2] = assay: Test Example 1: foliage treatment, upland pot test; format: in vivo, Digitaria sanguinalis L.; conditions: active ingredient 500 g/ha, observed 18th to 23rd day, 0 = non-treated, 100 = complete kill
green foxtail [3] = assay: Test Example 1: foliage treatment, upland pot test; format: in vivo, Setaria viridis L.; conditions: active ingredient 500 g/ha, observed 18th to 23rd day, 0 = non-treated, 100 = complete kill
redroot pigweed [4] = assay: Test Example 1: foliage treatment, upland pot test; format: in vivo, Amaranthus retroflexus L.; conditions: active ingredient 500 g/ha, observed 18th to 23rd day, 0 = non-treated, 100 = complete kill
prickly sida [5] = assay: Test Example 1: foliage treatment, upland pot test; format: in vivo, Sida spinosa L.; conditions: active ingredient 500 g/ha, observed 18th to 23rd day, 0 = non-treated, 100 = complete kill
velvetleaf [6] = assay: Test Example 1: foliage treatment, upland pot test; format: in vivo, Abutilon theophrasti MEDIC.; conditions: active ingredient 500 g/ha, observed 18th to 23rd day, 0 = non-treated, 100 = complete kill
rice [7] = assay: Test Example 1: foliage treatment, upland pot test; format: in vivo, Oryza sativa L.; conditions: crop, active ingredient 500 g/ha, observed 18th to 23rd day, 0 = non-treated, 100 = complete kill
How it was run: as §1

wheat [8] = assay: Test Example 1: foliage treatment, upland pot test; format: in vivo, Triticum spp.; conditions: crop, active ingredient 500 g/ha, observed 18th to 23rd day, 0 = non-treated, 100 = complete kill
How it was run: as §1

corn [9] = assay: Test Example 1: foliage treatment, upland pot test; format: in vivo, Zea mays L.; conditions: crop, active ingredient 500 g/ha, observed 18th to 23rd day, 0 = non-treated, 100 = complete kill
How it was run: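 In this upland pot foliage test, corn plants at 2.1 to 3.2 leaf stages were sprayed by a small size sprayer. The spray was a conventionally formulated wettable powder or emulsifiable concentrate weighed to a set active ingredient amount, diluted in water at 500 L/ha, plus 0.1% (v/v) agricultural spreader. Visual assessment on days 18 to 23 gave growth controlling degree (%), where 0 equals untreated and 100 means complete kill.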

soybean [10] = assay: Test Example 1: foliage treatment, upland pot test; format: in vivo, Glycine max Merr.; conditions: crop, active ingredient 500 g/ha, observed 18th to 23rd day, 0 = non-treated, 100 = complete kill
How it was run: as §1

barnyardgrass [11] = assay: Test Example 2: soil surface treatment, upland pot test; format: in vivo, Echinochloa crus-galli L.; conditions: active ingredient 500 g/ha, observed 20th to 28th day
How it was run: (§2)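 Pre-emergence soil-surface spray, 1 d after sowing; 1/170,000 ha pots, upland soil; WP or EC formulation, set a.i. rate, 1,500 L/ha water; visual growth-control score 0–100% at days 20–28 post-treatment.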

crabgrass [12] = assay: as above; format: in vivo, Digitaria sanguinalis L.; conditions: active ingredient 500 g/ha, observed 20th to 28th day
How it was run: as §2

green foxtail [13] = assay: as above; format: in vivo, Setaria viridis L.; conditions: active ingredient 500 g/ha, observed 20th to 28th day
How it was run: as §2

redroot pigweed [14] = assay: as above; format: in vivo, Amaranthus retroflexus L.; conditions: active ingredient 500 g/ha, observed 20th to 28th day
How it was run: as §2

prickly sida [15] = assay: as above; format: in vivo, Sida spinosa L.; conditions: active ingredient 500 g/ha, observed 20th to 28th day
How it was run: as §2

velvetleaf [16] = assay: as above; format: in vivo, Abutilon theophrasti MEDIC.; conditions: active ingredient 500 g/ha, observed 20th to 28th day
How it was run: as §2

rice [17] = assay: as above; format: in vivo, Oryza sativa L.; conditions: active ingredient 500 g/ha, observed 20th to 28th day
How it was run: as §2

wheat [18] = assay: as above; format: in vivo, Triticum spp.; conditions: active ingredient 500 g/ha, observed 20th to 28th day
How it was run: as §2

corn [19] = assay: as above; format: in vivo, Zea mays L.; conditions: active ingredient 500 g/ha, observed 20th to 28th day
How it was run: as §2

soybean [20] = assay: as above; format: in vivo, Glycine max Merr.; conditions: active ingredient 500 g/ha, observed 20th to 28th day
How it was run: as §2

barnyardgrass [21] = assay: Test Example 3: paddy pot test, application under submerged conditions; format: in vivo, Echinochloa crus-galli L.; conditions: active ingredient 250 g/ha; submerged application at 0.5 leaf stage; visually observed 14 days after application; 0 = non-treated, 100 = complete kill
How it was run: (§3)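 After sowing seeds and planting wapato tubers in flooded paddy soil, an aqueous dilution of the formulated compound was added to the 3–4 cm flood water at early leaf stage. Percent growth control relative to the untreated plot was assessed visually on day 14.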

japanese bulrush = assay: as above; format: in vivo, Scirpus juncoides; conditions: active ingredient 250 g/ha; submerged application at 0.5 leaf stage; visually observed 14 days after application; 0 = non-treated, 100 = complete kill
How it was run: as §3

rice (var. Nihonbare) = assay: Test Example 3: paddy pot test, transplanted rice; format: in vivo, Oryza sativa L.; conditions: active ingredient 250 g/ha, applied 4th day after transplantation, visually observed 21st day after application, 0 = non-treated, 100 = complete kill
How it was run: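 Rice (2-leaf stage) was transplanted 3 cm deep into puddled, leveled paddy soil under 3–4 cm flooding. On day 4 after transplanting, diluted wettable powder or emulsifiable concentrate was pipetted onto the water at a predetermined active-ingredient dose. Growth control (0 = untreated, 100 = complete kill) was scored visually 21 days later.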

Compound | Growth controlling degree (%) Barnyardgrass (barnyardgrass [1]) [%] | Growth controlling degree (%) Crabgrass (crabgrass [2]) [%] | Growth controlling degree (%) Green foxtail (green foxtail [3]) [%] | Growth controlling degree (%) Redroot pigweed (redroot pigweed [4]) [%] | Growth controlling degree (%) Prickly sida (prickly sida [5]) [%] | Growth controlling degree (%) Velvetleaf (velvetleaf [6]) [%] | Growth controlling degree (%) Rice (rice [7]) [%] | Growth controlling degree (%) wheat (wheat [8]) [%] | Growth controlling degree (%) Corn (corn [9]) [%] | Growth controlling degree (%) Soybean (soybean [10]) [%] | Growth controlling degree (%) Barnyardgrass (barnyardgrass [11]) [%] | Growth controlling degree (%) Crabgrass (crabgrass [12]) [%] | Growth controlling degree (%) Green foxtail (green foxtail [13]) [%] | Growth controlling degree (%) Redroot pigweed (redroot pigweed [14]) [%] | Growth controlling degree (%) Prickly sida (prickly sida [15]) [%] | Growth controlling degree (%) Velvetleaf (velvetleaf [16]) [%] | Growth controlling degree (%) Rice (rice [17]) [%] | Growth controlling degree (%) wheat (wheat [18]) [%] | Growth controlling degree (%) Corn (corn [19]) [%] | Growth controlling degree (%) Soyabean (soybean [20]) [%] | further results
Cc1ccc(OC(C)C(=O)N(C)C(c2cnccc2C(F)(F)F)C(C)C)cc1 (mixture of isomers) [I-131] | 70 | 80 | 70 | 70 | 70 | 50 | 30 | 50 | 50 | 80 | 100 | 100 | 100 | 30 | 60 | 0 | 20 | 20 | 10 | 40 | Growth controlling degree (%) Barnyardgrass (barnyardgrass [21]): 100%; Growth controlling degree (%) Japanese bulrush (japanese bulrush): 95%; Growth controlling degree (%) Rice (rice (var. Nihonbare)): 10%
CC(Oc1ccc(F)cc1)C(=O)N(C)C(c1cnccc1C(F)(F)F)C(C)C (mixture of isomers) [I-133] | 70 | 70 | 70 | 70 | 80 | 70 | 40 | 40 | 80 | 80 | 100 | 98 | 100 | 50 | 80 | 50 | 70 | 40 | 50 | 30 | Growth controlling degree (%) Barnyardgrass (barnyardgrass [21]): 100%; Growth controlling degree (%) Japanese bulrush (japanese bulrush): 95%; Growth controlling degree (%) Rice (rice (var. Nihonbare)): 10%
CC(C)C(c1cnccc1C(F)(F)F)N(C)S(=O)(=O)c1ccc(F)cc1 (racemic) [I-124] | 80 | 95 | 70 | 50 | 80 | 70 | 40 | 60 | 60 | 80 | 100 | 100 | 100 | 60 | 90 | 80 | 20 | 10 | 20 | 30 | Growth controlling degree (%) Barnyardgrass (barnyardgrass [21]): 100%; Growth controlling degree (%) Japanese bulrush (japanese bulrush): 70%; Growth controlling degree (%) Rice (rice (var. Nihonbare)): 0%
CC(C)C(c1cnccc1C(F)(F)F)N(C)S(=O)(=O)c1ccc(Cl)cc1 (racemic) [I-125] | 70 | 95 | 70 | 60 | 80 | 70 | 40 | 10 | 60 | 80 | 100 | 100 | 100 | 50 | 80 | 70 | 30 | 20 | 10 | 10 | Growth controlling degree (%) Barnyardgrass (barnyardgrass [21]): 100%; Growth controlling degree (%) Japanese bulrush (japanese bulrush): 70%; Growth controlling degree (%) Rice (rice (var. Nihonbare)): 10%
CC(C)C(c1cnccc1C(F)(F)F)N(C)S(=O)(=O)c1ccc(F)cc1F (racemic) [I-127] | 70 | 95 | 50 | 20 | 70 | 60 | 30 | 0 | 40 | 60 | 100 | 90 | 100 | 60 | 50 | 40 | 20 | 30 | 10 | 10 | Growth controlling degree (%) Barnyardgrass (barnyardgrass [21]): 100%; Growth controlling degree (%) Japanese bulrush (japanese bulrush): 70%; Growth controlling degree (%) Rice (rice (var. Nihonbare)): 0%
